Measurements from PubChem BioAssay AID504611 (National Center for Advancing Translational Sciences (NCATS), 2011).

Test system: Caco-2 monolayer permeability, A-to-B, LC-MS/MS
Assay: Inhibitors of 12-hLO: Caco-2 Permeability Profiling
Conditions: active compounds read high
Excerpt: Assay Provider: Holman, T.R., University of California, Santa Cruz Grant #: MH08128301 Screening Center PI: Austin, C.P. Screening Center: NIH Chemical Genomics Center [NCGC] Human lipoxygenase 12hLO is a member of the closely related lipoxygenase family of enzymes which catalyze the site-specific oxidation of arachidonic acid to various hormone precursor molecules and as such is a candidate for drug development in a variety of disease areas, such as cancer and inflammation. After qHTS, hits were confirmed in follow-up assays, and leads were optimized through SAR. The resulting lead compound was further characterized through a battery ADME-Tox experiments and this assay describes its Caco-2 permeability. This permeability assay predicts the in vivo absorption of the lead across the intestinal lining by using a Caco-2 cell line and measuring the lead's rate of transport […].
1. Buffer Preparation: Prepare 1M HEPES: add 23.83g HEPES to 100ml of 0.85% NaCl Prepare HBSS+ buffer: add 12.8ml of 1M HEPES in 0.85% NaCl to 500ml HBSS buffer. 2. Take out the compounds from -80 degrees C, ultrasonicate or pre-warm for a few minutes to thaw the compounds. 3. […] The T0, LY and T90, LY plates are read by FlexStation 3 at excitation of 485 nm and emission of 535 nm to determine LY permeability. […]

permeability Papp: 8.8 10^-6 cm/s
SMILES: CC(=O)NC(c1cccs1)c1cc(Br)c2cccnc2c1O (stereo unspecified)
